24 compounds from patent publication US12187684B2, “Benzimidazole derivatives as modulators of retinoid-related orphan receptor gamma (RORγ) and pharmaceutical use thereof” (Jiangsu Hengrui Medicine Co., Ltd., priority 2018, dated 2025) can be followed below.

The subject of experiment [1] is IL-17 production, human PBMC cells. Briefly: IL-17 production assay using human PBMC. The class given is cell-based. The note with it: human PBMC stimulated by cytostim for 3 days, IL-17 ELISA of supernatant. The method, boiled down:
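Cryopreserved human PBMCs, 1×10^5 per well in TexMACS, were treated with compound or vehicle (<0.5% DMSO) and stimulated with Cytostim (10 μL/mL) for 3 days at 37 °C. Supernatant IL-17 was measured by ELISA. IC50 was taken from concentration versus percent inhibition.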

The target in the next experiment is T1, RORγ LBD-GST tagged (Homo sapiens, UniProt P51449).
T1 construct: RORγ LBD-GST tagged (Cat No. RORC-114H, Creative Biomart); purchased Creative Biomart RORC-114H
T1 sequence (P51449 269-508 limits assumed): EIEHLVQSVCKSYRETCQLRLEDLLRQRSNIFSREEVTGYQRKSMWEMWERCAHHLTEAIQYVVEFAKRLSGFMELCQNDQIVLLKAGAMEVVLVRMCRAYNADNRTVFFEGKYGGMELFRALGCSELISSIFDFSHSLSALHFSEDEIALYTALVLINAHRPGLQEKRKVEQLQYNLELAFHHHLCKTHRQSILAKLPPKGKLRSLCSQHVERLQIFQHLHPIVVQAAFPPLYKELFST
Briefly: LanthaScreen TR-FRET RORγ coactivator assay. The class given is biochemical. As to conditions: Fluorescein-D22 coactivator peptide, 1 hour room temperature. A digest of the protocol:
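GST-tagged RORγ LBD (25 ng/reaction) was incubated in coregulator buffer D with 5 mM DTT and compound (top 3 μM, 7-fold steps, 7 doses), then with a mix containing 0.6 μM fluorescein-D22 peptide and 8 nM Tb anti-GST antibody. After 1 h at room temperature in the dark, 520/495 nm TR-FRET was read. IC50 came from log concentration versus percent inhibition.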
For orientation: TR-FRET usually uses a lanthanide donor and a delayed reading to cut background.

One may read the IC50 as the concentration needed to halve the response being measured. A lower IC50 goes with greater potency. `CCOc1ccccc1-c1c(Cl)cc2nc(Cc3ccc(S(=O)(=O)CC4CC4)cc3)[nH]c2c1Cl` [Example 136, 5,7-dichloro-2-(4-((cyclopropylmethyl)sulfonyl)benzyl)-6-(2-ethoxyphenyl)-1H-benzo[d]imidazole]: the half-maximal inhibitory concentration (IC50) in experiment [1] (Homo sapiens, PBMC, 72 h) worked out at 0.014 µM; on RORγ LBD-GST tagged, 0.005 µM.

In the case of `O=S(=O)(CC1CC1)c1ccc(C(CCO)c2nc3cc(Cl)c(-c4ccccc4OC(F)F)c(Cl)c3[nH]2)cc1` (stereo not drawn) [Example 159, 3-(4-((cyclopropylmethyl)sulfonyl)phenyl)-3-(5,7-dichloro-6-(2-(difluoromethoxy)phenyl)-1H-benzo[d]imidazol-2-yl)propan-1-ol], the IC50 was 0.01 µM in experiment [1] (Homo sapiens, PBMC, 72 h) and 0.005 µM against RORγ LBD-GST tagged.

Regarding `CCS(=O)(=O)c1ccc(C(O)c2nc3c(Cl)c(-c4ccccc4OC)c(Cl)cc3[nH]2)cc1` (stereo not drawn) [Example 7, (4,6-dichloro-5-(2-methoxyphenyl)-1H-benzo[d]imidazol-2-yl)(4-(ethylsulfonyl)phenyl)methanol], the half-inhibitory concentration (IC50) turned out to be 0.223 µM in experiment [1] (Homo sapiens, PBMC, 72 h) and 0.086 µM at RORγ LBD-GST tagged.

For `O=S(=O)(CC1CC1)c1ccc(C(CCO)c2nc3cc(Cl)c(N4CCC(F)(F)CC4)c(Cl)c3[nH]2)cc1` (stereo not drawn) [Example 157, 3-(4-((cyclopropylmethyl)sulfonyl)phenyl)-3-(5,7-dichloro-6-(4,4-difluoropiperidin-1-yl)-1H-benzo[d]imidazol-2-yl)propan-1-ol], the IC50 in experiment [1] (Homo sapiens, PBMC, 72 h) turned out to be 0.022 µM; against RORγ LBD-GST tagged, 0.007 µM.

Turning to `NC(=O)CC(c1ccc(S(=O)(=O)CC2CC2)cc1)c1nc2cc(Cl)c(N3CCC(F)(F)CC3)c(Cl)c2[nH]1` (stereo not drawn) [Example 154, 3-(4-((cyclopropylmethyl)sulfonyl)phenyl)-3-(5,7-dichloro-6-(4,4-difluoropiperidin-1-yl)-1H-benzo[d]imidazol-2-yl)propanamide], the half-inhibitory concentration (IC50) came out at 0.077 µM in experiment [1] (Homo sapiens, PBMC, 72 h) and 0.049 µM at RORγ LBD-GST tagged.

In the case of `O=S(=O)(CC1CC1)c1ccc(Cc2nc3c(Cl)c(-c4ccccc4OC(F)(F)F)c(Cl)cc3[nH]2)c(F)c1` [Example 80, 4,6-dichloro-2-(4-((cyclopropylmethyl)sulfonyl)-2-fluorobenzyl)-5-(2-(trifluoromethoxy)phenyl)-1H-benzo[d]imidazole], the half-inhibitory concentration (IC50) in experiment [1] (Homo sapiens, PBMC, 72 h) amounted to 0.013 µM; against RORγ LBD-GST tagged, 0.031 µM.

For `NC(=O)CC(c1ccc(S(=O)(=O)CC2CC2)cc1)c1nc2cc(-c3ccccc3OC(F)F)c(Cl)cc2[nH]1` (single isomer, unassigned) [the longer retention time of 152 and 153, 3-(6-chloro-5-(2-(difluoromethoxy)phenyl)-1H-benzo[d]imidazol-2-yl)-3-(4-((cyclopropylmethyl)sulfonyl)phenyl)propanamide], the values for the IC50 (in experiment [1]; against RORγ LBD-GST tagged) were 0.01 µM and 0.013 µM, respectively.

`CCS(=O)(=O)c1ccc(Cc2nc3c(Cl)c(-c4ccccc4OCOC)c(Cl)cc3[nH]2)cc1` [Example 13, 4,6-dichloro-2-(4-(ethylsulfonyl)benzyl)-5-(2-(methoxymethoxy)phenyl)-1H-benzo[d]imidazole]: the concentration for half-maximal inhibition (IC50) in experiment [1] (Homo sapiens, PBMC, 72 h) is 0.082 µM; at RORγ LBD-GST tagged, 0.675 µM.

In the case of `O=S(=O)(CC1CC1)c1ccc(C(CO)c2nc3c(Cl)c(-c4ccccc4OC(F)F)c(Cl)cc3[nH]2)c(F)c1` (stereo not drawn) [Example 99, 2-(4-((cyclopropylmethyl)sulfonyl)-2-fluorophenyl)-2-(4,6-dichloro-5-(2-(difluoromethoxy)phenyl)-1H-benzo[d]imidazol-2-yl)ethanol], the IC50 in experiment [1] (Homo sapiens, PBMC, 72 h) is 0.0024 µM; against RORγ LBD-GST tagged, 0.025 µM.

Regarding `CC(C)Oc1ccccc1-c1cc2nc(C(CCO)c3ccc(S(=O)(=O)CC4CC4)cc3)[nH]c2cc1Cl` (stereo not drawn) [Example 144, 3-(5-chloro-6-(2-isopropoxyphenyl)-1H-benzo[d]imidazol-2-yl)-3-(4-((cyclopropylmethyl)sulfonyl)phenyl)propan-1-ol], the IC50 stood at 0.023 µM in experiment [1] (Homo sapiens, PBMC, 72 h) and 0.011 µM on RORγ LBD-GST tagged.

`CS(=O)(=O)c1ccc(C(CO)c2nc3c(Cl)c(-c4ccccc4C(F)(F)F)c(Cl)cc3[nH]2)cc1` (stereo not drawn) [Example 46, 2-(4,6-dichloro-5-(2-(trifluoromethyl)phenyl)-1H-benzo[d]imidazol-2-yl)-2-(4-(methylsulfonyl)phenyl)ethanol]: the half-inhibitory concentration (IC50) was found to be 0.018 µM in experiment [1] (Homo sapiens, PBMC, 72 h) and 0.048 µM on RORγ LBD-GST tagged.

In the case of `CCS(=O)(=O)c1ccc(C(CO)c2nc3c(Cl)c(-c4ccccc4OCOC)c(Cl)cc3[nH]2)cc1` (stereo not drawn) [Example 14, 2-(4,6-dichloro-5-(2-methoxymethoxyphenyl)-1H-benzo[d]imidazol-2-yl)-2-(4-(ethylsulfonyl)phenyl)ethanol], the IC50 is 0.022 µM in experiment [1] (Homo sapiens, PBMC, 72 h) and 0.086 µM at RORγ LBD-GST tagged.

Regarding `CC(=O)NCC(c1ccc(S(=O)(=O)CC2CC2)cc1)c1nc2cc(Cl)c(-c3ccccc3OC(F)F)cc2[nH]1` (stereo not drawn) [Example 129, N-(2-(5-chloro-6-(2-(difluoromethoxy)phenyl)-1H-benzo[d]imidazol-2-yl)-2-(4-((cyclopropylmethyl)sulfonyl)phenyl)ethyl)acetamide], the half-inhibitory concentration (IC50) in experiment [1] (Homo sapiens, PBMC, 72 h) stood at 0.242 µM; at RORγ LBD-GST tagged it was 0.014 µM.

On to `CCS(=O)(=O)c1ccc(Cc2nc3c(Cl)c(-c4ccccc4OCCOC)c(Cl)cc3[nH]2)cc1` [Example 19, 4,6-dichloro-2-(4-(ethylsulfonyl)benzyl)-5-(2-(2-methoxyethoxy)phenyl)-1H-benzo[d]imidazole], for which the IC50 in experiment [1] (Homo sapiens, PBMC, 72 h) turned out to be 0.343 µM; on RORγ LBD-GST tagged, 0.052 µM.

As for `O=S(=O)(CC1CC1)c1ccc(C(CCO)c2nc3cc(Cl)c(N4CCC(F)(F)CC4)c(Cl)c3[nH]2)cc1` (single isomer, unassigned) [3-(4-((cyclopropylmethyl)sulfonyl)phenyl)-3-(5,7-dichloro-6-(4,4-difluoropiperidin-1-yl)-1H-benzo[d]imidazol-2-yl)propan-1-ol], the IC50 was determined as 0.006 µM in experiment [1] (Homo sapiens, PBMC, 72 h) and 0.003 µM at RORγ LBD-GST tagged.

Turning to `CCS(=O)(=O)c1ccc(C(CO)c2nc3cc(-c4ccccc4OC(F)(F)F)c(Cl)cc3[nH]2)cc1` (stereo not drawn) [Example 119, 2-(6-chloro-5-(2-(trifluoromethoxy)phenyl)-1H-benzo[d]imidazol-2-yl)-2-(4-(ethylsulfonyl)phenyl)ethanol], the 50% inhibitory concentration (IC50) is 0.124 µM in experiment [1] (Homo sapiens, PBMC, 72 h) and 0.034 µM against RORγ LBD-GST tagged.

Consider `CC(C)Oc1ccccc1-c1cc2nc(C(CO)c3ccc(S(=O)(=O)CC4CC4)cc3)[nH]c2cc1Cl` (stereo not drawn) [Example 124, 2-(6-chloro-5-(2-isopropoxyphenyl)-1H-benzo[d]imidazol-2-yl)-2-(4-((cyclopropylmethyl)sulfonyl)phenyl)ethanol], for which the IC50 in experiment [1] (Homo sapiens, PBMC, 72 h) turned out to be 0.032 µM; against RORγ LBD-GST tagged, 0.205 µM.

For `CCS(=O)(=O)c1ccc(Cc2nc3c(Cl)c(N4CCC(F)(F)CC4)c(Cl)cc3[nH]2)cc1` [Example 125, 4,6-dichloro-5-(4,4-difluoropiperidin-1-yl)-2-(4-(ethylsulfonyl)benzyl)-1H-benzo[d]imidazole], the IC50 stood at 0.047 µM in experiment [1] (Homo sapiens, PBMC, 72 h) and 0.059 µM at RORγ LBD-GST tagged.

As for `CCS(=O)(=O)c1ccc(C(O)c2nc3c(Cl)c(-c4ccccc4OCCOC)c(Cl)cc3[nH]2)cc1` (stereo not drawn) [Example 21, (4,6-dichloro-5-(2-(2-methoxyethoxy)phenyl)-1H-benzo[d]imidazol-2-yl)(4-(ethylsulfonyl)phenyl)methanol], the IC50 in experiment [1] (Homo sapiens, PBMC, 72 h) was 0.453 µM; against RORγ LBD-GST tagged, 0.083 µM.

As to `CC(C)Oc1ccccc1-c1c(Cl)cc2nc(C(O)c3ccc(S(=O)(=O)CC4CC4)cc3)[nH]c2c1Cl` (stereo not drawn) [Example 133, (4-((cyclopropylmethyl)sulfonyl)phenyl)(5,7-dichloro-6-(2-isopropoxyphenyl)-1H-benzo[d]imidazol-2-yl)methanol], the IC50 in experiment [1] (Homo sapiens, PBMC, 72 h) stood at 0.027 µM; on RORγ LBD-GST tagged, 0.024 µM.

As to `CC(C)Oc1ccccc1-c1cc2nc(C(CC(N)=O)c3ccc(S(=O)(=O)CC4CC4)cc3)[nH]c2cc1Cl` (stereo not drawn) [Example 143, 3-(5-chloro-6-(2-isopropoxyphenyl)-1H-benzo[d]imidazol-2-yl)-3-(4-((cyclopropylmethyl)sulfonyl)phenyl)propanamide], the 50% inhibitory concentration (IC50) stood at 0.027 µM in experiment [1] (Homo sapiens, PBMC, 72 h) and 0.01 µM against RORγ LBD-GST tagged.

Take `O=S(=O)(CC1CC1)c1ccc(Cc2nc3c(Cl)c(-c4ccccc4OC(F)F)c(Cl)cc3[nH]2)cc1` [Example 72, 4,6-dichloro-2-(4-((cyclopropylmethyl)sulfonyl)benzyl)-5-(2-(difluoromethoxy)phenyl)-1H-benzo[d]imidazole]: the IC50 in experiment [1] (Homo sapiens, PBMC, 72 h) was 0.003 µM; against RORγ LBD-GST tagged, 0.006 µM.

In the case of `O=S(=O)(CC1CC1)c1ccc(Cc2nc3cc(Cl)c(N4CCC(F)(F)CC4)c(Cl)c3[nH]2)cc1` [Example 127, 5,7-dichloro-2-(4-((cyclopropylmethyl)sulfonyl)benzyl)-6-(4,4-difluoropiperidin-1-yl)-1H-benzo[d]imidazole], the half-inhibitory concentration (IC50) came to 0.013 µM in experiment [1] (Homo sapiens, PBMC, 72 h) and 0.22 µM on RORγ LBD-GST tagged.

For the compound `CCS(=O)(=O)c1ccc(C(N)c2nc3c(Cl)c(-c4ccccc4OC(F)F)c(Cl)cc3[nH]2)cc1` (stereo not drawn) [Example 39, (4,6-dichloro-5-(2-(difluoromethoxy)phenyl)-1H-benzo[d]imidazol-2-yl)(4-(ethylsulfonyl)phenyl)methanamine], the IC50 was found to be 0.038 µM in experiment [1] (Homo sapiens, PBMC, 72 h) and 0.007 µM against RORγ LBD-GST tagged.
